Laboratory results: the NIST ThermoML archive (doi:10.1016/j.jct.2014.10.008)

Assay: osmotic coefficient (dimensionless); mn = molality of the nth substance listed, in mol/kg
Details: 101 kPa, Liquid, Vapor pressure osmometer - Knauer K-7000

CCCCCCCC[n+]1ccn(C)c1.[Cl-] [1-methyl-3-octylimidazolium chloride] + O
Details	osmotic coefficient
313.15 K, m1 = 0.0346	1.05
313.15 K, m1 = 0.0491	1
313.15 K, m1 = 0.0809	0.816
313.15 K, m1 = 0.1329	0.727
313.15 K, m1 = 0.182	0.681
313.15 K, m1 = 0.2455	0.617
313.15 K, m1 = 0.2917	0.555
313.15 K, m1 = 0.3582	0.531
313.15 K, m1 = 0.4679	0.48
313.15 K, m1 = 0.5228	0.45
313.15 K, m1 = 0.6037	0.424
313.15 K, m1 = 0.7323	0.383
313.15 K, m1 = 0.8825	0.343
313.15 K, m1 = 1.072	0.317
313.15 K, m1 = 1.356	0.289
313.15 K, m1 = 1.771	0.266
323.15 K, m1 = 0.0419	1.1
323.15 K, m1 = 0.052	1.06
323.15 K, m1 = 0.0858	0.946
323.15 K, m1 = 0.1118	0.918
323.15 K, m1 = 0.182	0.726
323.15 K, m1 = 0.2455	0.675
323.15 K, m1 = 0.2917	0.633
323.15 K, m1 = 0.3582	0.587
323.15 K, m1 = 0.4679	0.54
323.15 K, m1 = 0.5228	0.498
323.15 K, m1 = 0.6037	0.464
323.15 K, m1 = 0.7323	0.424
323.15 K, m1 = 0.8825	0.384
323.15 K, m1 = 1.072	0.345
323.15 K, m1 = 1.356	0.31
323.15 K, m1 = 1.771	0.3
328.15 K, m1 = 0.0361	1.14
328.15 K, m1 = 0.0506	1.12
328.15 K, m1 = 0.0852	1.08
328.15 K, m1 = 0.1329	1.07
328.15 K, m1 = 0.1791	1.02
328.15 K, m1 = 0.2484	0.962
328.15 K, m1 = 0.2947	0.957
328.15 K, m1 = 0.3568	0.929
328.15 K, m1 = 0.468	0.906
328.15 K, m1 = 0.5243	0.875
328.15 K, m1 = 0.6052	0.844
328.15 K, m1 = 0.7352	0.753
328.15 K, m1 = 0.8826	0.689
328.15 K, m1 = 1.072	0.624
328.15 K, m1 = 1.359	0.556
328.15 K, m1 = 1.774	0.479

CCCC[N+]1(C)CCCC1.N#CN=C=[N-] [1-butyl-1-methylpyrrolidinium dicyanamide] + O
Details	osmotic coefficient
313.15 K, m1 = 0.0272	0.915
313.15 K, m1 = 0.0491	0.849
313.15 K, m1 = 0.0864	0.734
313.15 K, m1 = 0.1088	0.697
313.15 K, m1 = 0.1499	0.68
313.15 K, m1 = 0.1968	0.627
313.15 K, m1 = 0.3968	0.503
313.15 K, m1 = 0.5057	0.471
313.15 K, m1 = 0.7825	0.433
313.15 K, m1 = 0.9665	0.416
313.15 K, m1 = 1.474	0.373
323.15 K, m1 = 0.0272	0.982
323.15 K, m1 = 0.0512	0.879
323.15 K, m1 = 0.0928	0.855
323.15 K, m1 = 0.112	0.846
323.15 K, m1 = 0.1499	0.81
323.15 K, m1 = 0.1968	0.747
323.15 K, m1 = 0.2912	0.673
323.15 K, m1 = 0.3968	0.656
323.15 K, m1 = 0.5057	0.608
323.15 K, m1 = 0.7825	0.538
323.15 K, m1 = 0.9665	0.48
323.15 K, m1 = 1.488	0.405
328.15 K, m1 = 0.024	1.05
328.15 K, m1 = 0.0896	0.859
328.15 K, m1 = 0.1248	0.815
328.15 K, m1 = 0.2032	0.747
328.15 K, m1 = 0.2913	0.682
328.15 K, m1 = 0.4017	0.642
328.15 K, m1 = 0.5041	0.585
328.15 K, m1 = 0.7825	0.559
328.15 K, m1 = 0.973	0.498
328.15 K, m1 = 1.496	0.424
